The text below walks through data of patent US5053070A, “Pyrimidine derivatives, preparation processes thereof, herbicide containing the same, and herbicidal compositions containing the same along with other active ingredient” (Mitsui Toatsu Chemicals, Incorporated, priority 1988, dated 1991).

The subject of one assay is redroot pigweed. As to the kind of experiment: Upland foliar application test by mixed formulations, concentration gradient (Test 8). The note with it: Amaranthus retroflexus, 960 h, applied alone, 40th day, read-out: Herbicidal effects Redrood pigweed Ea; for pest or weed control at 100 g/ha: 1 g/a; for pest or weed control at 200 g/ha: 2 g/a. Format: in vivo. As to the method: (§1) Resin-made 1/10,000-are pots were filled with the soil of an upland field. Redroot pigweed and johnsongrass were separately seeded and were allowed to germinate in a green house. When each plant grew to the stage of 2-3 leaves, emulsions formulated with concentration gradient from predetermined amounts of two test compounds of different kinds in a similar manner to the method described in Formulation Example 16 was diluted with water to a predetermined dilution rate and then sprayed at an application rate equal to 5 l per are onto the foliage of each plant by means of a pressure-operated ULV (ultra low volume) sprayer. Influence to the weeds were observed on the 40th day after the spray of the herbicides. The results are shown in Table 9, In the table, Ea have the same meanings as in Test 7, and Ea>Ec indicates the existence of synergistic action while Ea<Ec indicates the existence of antagonistic action.

The next assay relates to johnsongrass. The assay is described as above. The class given is in vivo. Conditions: Sorghum halepense, 960 h, applied alone, 40th day, read-out: Herbicidal effects Johnsongrass Ea; for pest or weed control at 100 g/ha: 1 g/a; for pest or weed control at 200 g/ha: 2 g/a. The method, then: as §1

In the case of `COc1cc(OC)nc(Oc2ccccc2C=NOCC=Cc2ccccc2C)n1` [Compound No. 39], in the assay with redroot pigweed, the pest or weed control at 100 g/ha came out at 10% and the pest or weed control at 200 g/ha was 30%. Also, in the assay with johnsongrass, the pest or weed control at 100 g/ha amounted to 10% and the pest or weed control at 200 g/ha turned out to be 20%.
With `C#CCON=Cc1ccccc1Oc1nc(OC)cc(OC)n1` [Compound No. 13, 0-(2-propynyl)-2-(4,6-dimethoxy-2-pyrimidinyloxy)benzaldoxime], in the assay with redroot pigweed, the pest or weed control at 100 g/ha stood at 20% and the pest or weed control at 200 g/ha came to 40%. For the same molecule, in the assay with johnsongrass, the pest or weed control at 100 g/ha amounted to 30% and the pest or weed control at 200 g/ha stood at 50%.
Turning to `COc1cc(OC)nc(Oc2ccccc2C=NOCC=C(C)C)n1` [Compound No. 7], in the assay with redroot pigweed, the pest or weed control at 100 g/ha came out at 10% and the pest or weed control at 200 g/ha was found to be 50%. In the assay on johnsongrass, the pest or weed control at 100 g/ha is 10% and the pest or weed control at 200 g/ha came out at 20%.
For `COc1cc(OC)nc(Oc2ccccc2C=NOCC=Cc2ccccc2)n1` [Compound No. 9], in the assay on redroot pigweed, the pest or weed control at 100 g/ha came out at 10% and the pest or weed control at 200 g/ha is 30%. Also, in the assay on johnsongrass, the pest or weed control at 100 g/ha worked out at 10% and the pest or weed control at 200 g/ha is 20%.
